Results as given in patent publication US8324282B2, “Alkylating agent combinations in the treatment of cancer” (Case Western Reserve University, priority 1999, dated 2012).

Columns and labels:
[1] = tested on: SW480 cells; assay: Colony survival assay, SW480; format: cell-based, human
Description: Chemicals and Reagents. BG was generously provided by Dr. Robert Moschel (Frederick Cancer Research and Development Center, National Cancer Institute). Stock solution was made in dimethylsulfoxide. TMZ and BCNU were obtained from the Drug Synthesis and Chemistry Branch, Drug Therapeutic Program, National Cancer Center Institute. PD128763 was a gift from Park-Davis Pharmaceutical Division. 6-AN, 3-AB, MX and methylmethane sulfonate (MMS) were purchased from Sigma (ST. Louis, Mo.). Stock solutions of PD128763, 3-AB and 6-AN were prepared by dissolving in dimethylsulfoxide and added to cell culture at a final concentration of <1% DMSO, when cells were treated with these compounds. MX was dissolved in sterilized water (pH 7.0). All stock solutions were kept at −20° C. BCNU was prepared fresh in 0.5 ml of 100% ethanol, diluted in PBS, and used with in 10 min. Colony Survival Assay. SW480 cells were obtained from the ATCC. HCT116 cells were obtained from R. Boland, University of Michigan Medical Center. All cell lines were cultured in appropriate growth medium.
Cells (2000/dish) were plated, adhered for 18 hrs and treated with TMZ or
MMS plus or minus modifiers such as […], MX, 6-AN, 3-AB or PD128763, according to experimental protocol. After treatment, cells were washed and fresh medium was replaced. The cells were grown for a further 7 days prior to staining with methylene blue for determination of colonies containing more than 50 cells. Comparisons of drug induced cytotoxicity consisted of a calculation of the dose modification factor (DMF), defined as the ratio of the IC50 of either TMZ or MMS in the absence to that in the presence of indicted modifier(s), i.e., DMF═IC50 for TMZ alone/IC50 for TMZ plus modifier(s).

[2] = tested on: HCT116 cells; assay: Flow cytometry cell cycle distribution and apoptosis, HCT116; format: cell-based, human
[3] = Acute toxicity of MX (i.p.); conditions: mice, single injection
Description: Three mice per group were injected (i.p.) with MX at doses of 1, 2, 4, 6, 10 and 15 mg/kg for the test of acute toxicity.

[4] = tested on: SW480 xenograft; assay: SW480 xenograft tumor response in nude mice; format: in vivo; conditions: SW480 xenograft; Table 1 doses: TMZ 120, MX 2, BG+TMZ 30/120, MX+TMZ 2/120 mg/kg; daily for 5 days
[5] = tested on: human bone marrow cells (CD34+ cells); assay: Colony forming assay, human bone marrow / CD34+ cells; format: cell-based; conditions: human CD34+ cells; colony forming assay
Description: (§1) We observed less myelosuppression and less weight loss using TMZ and MX than using TMZ and BG. […] To test this hypothesis, we conducted in vitro experiments comparing the sensitivity to BG+TMZ and MX+TMZ in colon cancer cell lines with that of mouse bone marrow and human bone marrow cells. […] MX increased TMZ killing by 4 fold in SW480 cells. […] Topoisomerase (Topo) I and Topo II recognize spontaneous AP sites and form stable cleavable complexes. We hypothesized that AP sites formed during repair of TMZ-induced N7 mG and N3 mA adducts would also be recognized by Topo I and Topo II. However since Base Excision Repair [BER] is normally quite efficient, we further hypothesized that the impact of Topo I and Topo II would be most important after MX inhibition of BER; increased unrepaired MX adducted AP sites should increase Topo mediated strand breaks and apoptosis. Therefore, potentiation of TMZ cytotoxicity by MX would be dependent on Topo I and II. […] Lack of Topo I and II results in less cleavable complex formation, fewer double strand DNA breaks, and less apoptosis. We predict a better therapeutic index for the combination of MX/TMZ than observed with BG/TMZ because of the relative overexpression of topoisomerases I and II in malignant cells compared to marrow progenitors.

[6] = tested on: murine bone marrow progenitor cells; assay: Colony forming assay, murine bone marrow progenitor cells; format: cell-based, mouse; conditions: murine bone marrow progenitor cells; colony forming assay
Description: as §1

[7] = tested on: DEtp cell line; assay: DEtp subline of DLD1; format: cell-based; conditions: DEtp cell line
Description: We also investigated whether TMZ and MX-induced MX-AP sites may also act as poisons of topoisomerase II α (topo II), producing dual lethal targets. To analyze the effect of MX-AP site on topo II-mediated DNA cleavage, a position-specific MX-AP site was generated on topo II cleavage sites using oligonuleotides for cleavage assay. […] We also found prolonged induction of topo II and remarkable increase in DNA double strand breaks in cells treated with TMZ and MX compared to TMZ alone. Similar results were also observed in cells treated with etoposide but not with N-methyl-maleimide (a catalytic inhibitor of topo II and also an antagonizer of etoposide). Moreover, the potentiation of TMZ by MX was decreased in DEtp cell line that was a subline derived from DLD1 and 5-fold more resistant to etoposide compared to the parental cell line.

[8] = Toxicity evaluation in mice bearing SW480 xenograft; conditions: Table 1 doses
Description: (§2) Tumors in Nude Mice. Tumor cells (5×10^6) were injected into flanks of female athymic HSD nude mice, at 6-8 weeks of age. The tumors were measured with calipers using the National Cancer Institute formula: V=L(mm)×I^2 (mm)/2 where L is the largest diameter and I is the smallest diameter of the tumor. […] Toxicity Evaluation. Toxicity after treatment was evaluated by body weight measurements and peripheral WBC counting. Body weight was measured three times weekly from the first treatment until 2 weeks after the end of treatment. The weight loss was expressed as a percentage of the initial weight (initial weight−lowest weight/initial weight×100%).

[9] = Toxicity evaluation in mice bearing HCT116 xenograft; conditions: Table 2 doses
Description: as §2

[10] = tested on: SW480 cells; assay: Flow cytometry cell cycle distribution and apoptosis, SW480
Description: Median Effect Analysis (MEA). MEA was used to determine the dose-response interactions between TMZ and either MX or PD 128763. Drugs were combined at the ratio of the IC50 values for either TMZ and MX or TMZ and PD 128763 as determined by survival/concentration curves. The combination was compared to the cytotoxicity of each drug alone in every experiment. The combination index (CI) was determined from colony-forming assays at increasing levels of cell killing, using analysis of multiple drug interaction program (Biosoft, Cambridge, United Kingdom) developed based on method of Chou and Talalay (Chou and Talalay “Quantitative analysis of dose-effect relationship: the combined effects of multiple drugs on enzyme inhibitors” In: G. Weber (ed.) Advances in Enzyme Regulation, pp. 27-55, New York: Pergamon Press, 1983). […] DNA fluorescence of PI-stained cells was measured with an Elite ESP flow cytometer/cell sorter (Coulter, Miami, Fla.). Cell cycle distribution was analyzed with Modfit 5.2 program (Verity software, Topsham, Mass.) at least 10,000 cells per data point. […] The tumors were measured with calipers using the National Cancer Institute formula: V=L(mm)×I^2 (mm)/2 where L is the largest diameter and I is the smallest diameter of the tumor. […] The relative tumor volume (V/V0) was calculated by dividing the measured tumor volume (V) by the initial tumor volume (V0) at day 0. […]

[11] = tested on: AP sites in SW480 cells; assay: AP sites measured with ARP reagent and S phase in SW480 cells, prolonged MX exposure; conditions: MX and TMZ over 72 h
Description: Cell lines used in this study include SW480 (MMR wt, p53 mut), HCT116 (hMLH1 mut, p53 wt) and HCT15 (hMSH6 mut, p53 mut). We measured AP sites using ARP reagent, noting that ARP and MX compete for binding to AP sites. […] It is likely that cytotoxicity elicited by both topol/II inhibitors and MX-AP sites is due to DNA cleavable complexes, and is thus dependent on the level of topo I/II expression.

CON [MX, methoxyamine]
cytotoxicity of MX alone ([1]; SW480, 6 mM MX): nontoxic | DMF / potentiation of MMS cytotoxicity ([1]; SW480, MMS 0-3 mM plus 6 mM MX and/or BG vs MMS alone): 2.0 fold | DMF (IC50 for TMZ alone/IC50 for TMZ plus modifier(s)) ([1]; SW480, modifier(s) plus TMZ vs TMZ alone): 2.4 fold | effect of modifier on BCNU cytotoxicity ([1]; SW480, without BG): No enhancement | potentiation of TMZ cytotoxicity ([1]; SW480 tumor cells, Example 13): 4 fold | effect on cell cycle distribution [2]: did not affect | lethal dose [3]: 15 mg/kg | Tumor growth delays [4]: 2.0 ± 0.5 days | potentiation of TMZ cytotoxicity [5]: no potentiation | potentiation of TMZ cytotoxicity [6]: no potentiation | potentiation of TMZ by MX [7]: decreased | Toxicity (max. BW loss) [8]: 0% | Toxicity (max. BW loss) [9]: 8.3% | effect of modifier alone on cell cycle distribution [10]: did not affect | AP sites MX bound [11]: 80%
